Measurements taken from PubChem BioAssay AID220 (DTP/NCI, 2004).
Where “and” joins values, the source holds several entries; their conditions need not be identical. Identical values can stand only once. Results filed as inconclusive are left out.

System: CD8F1 mice, subcutaneous mammary adenocarcinoma, T/C%
Assay: NCI In Vivo Anticancer Drug Screen. Data for tumor model Mammary Adenocarcinoma CD8F1 (subcutaneous) in CD8F1
Settings: higher = larger tumour
Procedure, shortened: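 Transplantable tumors were established in mice, animals were dosed with compound or vehicle, and survival or tumor size was then measured in both groups. The treated result was divided by the control result.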

CCOc1cc2c(cc1C(C)c1ccc(OC)cc1)OCO2 (stereo not drawn)
T/C (endpoint: median tumor weight change, dose: 62.5 mg/kg/injection, schedule: Q01DX001 (ip), vehicle: distilled water + alcohol): 102 % of control | T/C (endpoint: median tumor weight change, dose: 125.0 mg/kg/injection, schedule: Q01DX001 (ip), vehicle: distilled water + alcohol): 62 % of control | T/C (endpoint: median tumor weight change, dose: 250.0 mg/kg/injection, schedule: Q01DX001 (ip), vehicle: distilled water + alcohol): 67 % of control | T/C (endpoint: median tumor weight change, dose: 500.0 mg/kg/injection, schedule: Q01DX001 (ip), vehicle: distilled water + alcohol): 91 % of control

CC(C#N)(C#N)N=Nc1ccc(Cl)cc1Cl
T/C (endpoint: median tumor weight change, dose: 125.0 mg/kg/injection, schedule: Q01DX001 (ip), vehicle: saline with Tween-80): 161 % of control | T/C (endpoint: median tumor weight change, dose: 500.0 mg/kg/injection, schedule: Q01DX001 (ip), vehicle: saline with Tween-80): 115 % of control | T/C (endpoint: median tumor weight change, dose: 1000.0 mg/kg/injection, schedule: Q01DX001 (ip), vehicle: saline with Tween-80): 76 % of control

CC12CC(C(=O)O)C3(O)CC(C)(C1)CC(C)(C2)C3 (stereo not drawn) (tested in a mixture with another compound)
T/C (endpoint: median tumor weight (est.), dose: 12.5 mg/kg/injection, schedule: Q07DX005 (ip), vehicle: Klucel (hydroxypropylcellulose) (HPC)): 93 % of control | T/C (endpoint: median tumor weight (est.), dose: 25.0 mg/kg/injection, schedule: Q07DX005 (ip), vehicle: Klucel (hydroxypropylcellulose) (HPC)): 78 % of control | T/C (endpoint: median tumor weight (est.), dose: 50.0 mg/kg/injection, schedule: Q07DX005 (ip), vehicle: Klucel (hydroxypropylcellulose) (HPC)): 56 % of control | T/C (endpoint: median tumor weight (est.), dose: 200.0 mg/kg/injection, schedule: Q07DX005 (ip), vehicle: Klucel (hydroxypropylcellulose) (HPC)): 87 % of control | T/C (endpoint: median tumor weight (est.), dose: 400.0 mg/kg/injection, schedule: Q07DX005 (ip), vehicle: Klucel (hydroxypropylcellulose) (HPC)): 71 % of control

Cc1c(N)nc([C@H](CC(N)=O)NC[C@H](N)C(N)=O)nc1C(=O)N[C@H](C(=O)N[C@H](C)[C@@H](O)CC(=O)N[C@H](C(=O)NC(O[C@@H]1O[C@@H](C)[C@@H](N)[C@@H](O)[C@H]1O)C(O)c1nc(-c2nc(C(=O)NCCCCN)cs2)cs1)[C@@H](C)O)[C@@H](O[C@@H]1O[C@@H](CO)[C@@H](O)[C@H](O)[C@@H]1O[C@H]1O[C@H](CO)[C@@H](O)[C@H](OC(N)=O)[C@@H]1O)c1c[nH]cn1 (stereo partly drawn)
T/C (endpoint: median tumor weight (est.), dose: 1.0 mg/kg/injection, schedule: Q07DX005 (ip), vehicle: saline): 55 % of control | T/C (endpoint: median tumor weight (est.), dose: 2.0 mg/kg/injection, schedule: Q07DX005 (ip), vehicle: saline): 14 % of control and 26 % of control | T/C (endpoint: median tumor weight (est.), dose: 4.0 mg/kg/injection, schedule: Q07DX005 (ip), vehicle: saline): 18 % of control and 19 % of control | T/C (endpoint: median tumor weight (est.), dose: 8.0 mg/kg/injection, schedule: Q07DX005 (ip), vehicle: saline): 5 % of control | T/C (endpoint: median tumor weight (est.), dose: 16.0 mg/kg/injection, schedule: Q07DX005 (ip), vehicle: saline): 5 % of control | T/C (endpoint: median tumor weight (est.), dose: 32.0 mg/kg/injection, schedule: Q07DX005 (ip), vehicle: saline): 5 % of control | T/C (endpoint: median tumor weight change, dose: 4.0 mg/kg/injection, schedule: Q01DX001 (ip), vehicle: saline): 98 % of control | T/C (endpoint: median tumor weight change, dose: 8.0 mg/kg/injection, schedule: Q01DX001 (ip), vehicle: saline): 55 % of control | T/C (endpoint: median tumor weight change, dose: 16.0 mg/kg/injection, schedule: Q01DX001 (ip), vehicle: saline): 104 % of control | T/C (endpoint: median tumor weight change, dose: 32.0 mg/kg/injection, schedule: Q01DX001 (ip), vehicle: saline): 52 % of control

c1cc[c]([Sn][c]2ccccc2)cc1
T/C (endpoint: median tumor weight (est.), dose: 1.25 mg/kg/injection, schedule: Q07DX005 (ip), vehicle: saline): 101 % of control | T/C (endpoint: median tumor weight (est.), dose: 2.5 mg/kg/injection, schedule: Q07DX005 (ip), vehicle: saline): 91 % of control | T/C (endpoint: median tumor weight (est.), dose: 5.0 mg/kg/injection, schedule: Q07DX005 (ip), vehicle: saline): 86 % of control | T/C (endpoint: median tumor weight (est.), dose: 10.0 mg/kg/injection, schedule: Q07DX005 (ip), vehicle: saline): 68 % of control | T/C (endpoint: median tumor weight (est.), dose: 20.0 mg/kg/injection, schedule: Q07DX005 (ip), vehicle: saline): 50 % of control

O=C(O)[C@H](Cc1ccccc1)N1C(=O)c2ccccc2C1=O
T/C (endpoint: median tumor weight change, dose: 62.5 mg/kg/injection, schedule: Q01DX001 (ip), vehicle: DMSO): 75 % of control | T/C (endpoint: median tumor weight change, dose: 125.0 mg/kg/injection, schedule: Q01DX001 (ip), vehicle: DMSO): 116 % of control | T/C (endpoint: median tumor weight change, dose: 250.0 mg/kg/injection, schedule: Q01DX001 (ip), vehicle: DMSO): 68 % of control | T/C (endpoint: median tumor weight change, dose: 500.0 mg/kg/injection, schedule: Q01DX001 (ip), vehicle: DMSO): 59 % of control

Nc1n[n+](-c2ccc(Cl)cc2)no1
T/C (endpoint: median tumor weight (est.), dose: 6.25 mg/kg/injection, schedule: Q07DX005 (ip), vehicle: water): 184 % of control | T/C (endpoint: median tumor weight (est.), dose: 12.5 mg/kg/injection, schedule: Q07DX005 (ip), vehicle: water): 103 % of control | T/C (endpoint: median tumor weight (est.), dose: 25.0 mg/kg/injection, schedule: Q07DX005 (ip), vehicle: water): 88 % of control

O=C1OC(C(O)CO)C(O)=C1O (stereo not drawn)
T/C (endpoint: median tumor weight (est.), dose: 100.0 mg/kg/injection, schedule: Q07DX005 (ip), vehicle: saline): 70 % of control | T/C (endpoint: median tumor weight (est.), dose: 200.0 mg/kg/injection, schedule: Q07DX005 (ip), vehicle: saline): 28 % of control | T/C (endpoint: median tumor weight (est.), dose: 400.0 mg/kg/injection, schedule: Q07DX005 (ip), vehicle: saline): 110 % of control | T/C (endpoint: median tumor weight (est.), dose: 800.0 mg/kg/injection, schedule: Q07DX005 (ip), vehicle: saline): 61 % of control
